{"source": "paper PMC5999578", "about": "(Journal of the American Chemical Society, 2018)", "molecular_target": "VioC (Streptomyces vinaceus, UniProt Q6WZB0)", "sequence (Q6WZB0 whole entry)": "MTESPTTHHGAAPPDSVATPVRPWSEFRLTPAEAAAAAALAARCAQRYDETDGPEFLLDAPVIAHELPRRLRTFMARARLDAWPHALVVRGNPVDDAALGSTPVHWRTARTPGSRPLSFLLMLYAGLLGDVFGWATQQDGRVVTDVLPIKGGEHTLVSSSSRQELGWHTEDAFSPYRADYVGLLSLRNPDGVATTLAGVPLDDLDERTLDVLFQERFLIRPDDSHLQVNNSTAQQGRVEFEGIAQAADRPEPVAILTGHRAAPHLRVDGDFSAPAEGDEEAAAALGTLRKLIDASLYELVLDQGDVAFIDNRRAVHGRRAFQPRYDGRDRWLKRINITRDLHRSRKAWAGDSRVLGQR", "assay": "X-ray crystal structure, […] A", "assay_type": "binding", "details": "vanadyl (ferryl mimic) in place of Fe, L-hArg"}
{"smiles": "O=C(O)CCC(=O)O", "note": "[succinate]", "values": [{"measurement": "X-ray crystal structure, 1.70 A", "value": "crystals of the VioC•VO•succinate•L-hArg complex"}]}
